In PMC6474802 (Journal of natural products, 2018):

Columns and labels:
Format in all cases: cell-based
TRPV1 = TRPV1 (Homo sapiens, UniProt Q8NER1)
TRPV4 = TRPV4 (Homo sapiens, UniProt Q9HBA0)
TRPM8 = TRPM8 (Homo sapiens, UniProt Q7Z2W7)
Chain of TRPM8 (Q7Z2W7 whole entry): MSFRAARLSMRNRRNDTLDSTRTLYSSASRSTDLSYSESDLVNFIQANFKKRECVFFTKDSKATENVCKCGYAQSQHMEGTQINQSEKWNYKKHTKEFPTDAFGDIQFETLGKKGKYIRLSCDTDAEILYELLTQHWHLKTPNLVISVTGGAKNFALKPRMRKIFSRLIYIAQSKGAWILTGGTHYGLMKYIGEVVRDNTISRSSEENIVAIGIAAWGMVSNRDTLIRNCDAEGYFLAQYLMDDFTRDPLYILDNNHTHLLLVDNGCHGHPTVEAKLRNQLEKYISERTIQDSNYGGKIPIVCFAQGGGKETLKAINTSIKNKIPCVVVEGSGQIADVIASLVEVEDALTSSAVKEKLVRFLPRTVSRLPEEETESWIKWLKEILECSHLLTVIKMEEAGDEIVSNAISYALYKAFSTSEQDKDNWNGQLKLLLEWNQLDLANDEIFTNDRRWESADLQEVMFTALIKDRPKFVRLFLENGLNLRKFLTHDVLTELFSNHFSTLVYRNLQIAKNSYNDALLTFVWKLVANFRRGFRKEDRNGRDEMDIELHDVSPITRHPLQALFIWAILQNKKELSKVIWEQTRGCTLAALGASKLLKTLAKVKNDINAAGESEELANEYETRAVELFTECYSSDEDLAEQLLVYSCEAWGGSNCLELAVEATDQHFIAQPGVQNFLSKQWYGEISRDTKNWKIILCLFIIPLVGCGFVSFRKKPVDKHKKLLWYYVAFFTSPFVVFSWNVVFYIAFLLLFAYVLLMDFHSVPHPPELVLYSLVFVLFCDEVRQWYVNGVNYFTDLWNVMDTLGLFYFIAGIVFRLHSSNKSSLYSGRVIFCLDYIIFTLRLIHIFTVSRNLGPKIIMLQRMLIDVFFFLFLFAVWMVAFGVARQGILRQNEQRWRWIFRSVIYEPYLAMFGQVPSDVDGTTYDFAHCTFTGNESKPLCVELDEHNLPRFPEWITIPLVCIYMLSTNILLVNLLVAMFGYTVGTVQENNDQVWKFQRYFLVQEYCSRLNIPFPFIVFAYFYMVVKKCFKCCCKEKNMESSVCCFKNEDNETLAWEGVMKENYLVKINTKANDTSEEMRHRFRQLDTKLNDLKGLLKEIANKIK

Chain of TRPV4 (Q9HBA0 whole entry): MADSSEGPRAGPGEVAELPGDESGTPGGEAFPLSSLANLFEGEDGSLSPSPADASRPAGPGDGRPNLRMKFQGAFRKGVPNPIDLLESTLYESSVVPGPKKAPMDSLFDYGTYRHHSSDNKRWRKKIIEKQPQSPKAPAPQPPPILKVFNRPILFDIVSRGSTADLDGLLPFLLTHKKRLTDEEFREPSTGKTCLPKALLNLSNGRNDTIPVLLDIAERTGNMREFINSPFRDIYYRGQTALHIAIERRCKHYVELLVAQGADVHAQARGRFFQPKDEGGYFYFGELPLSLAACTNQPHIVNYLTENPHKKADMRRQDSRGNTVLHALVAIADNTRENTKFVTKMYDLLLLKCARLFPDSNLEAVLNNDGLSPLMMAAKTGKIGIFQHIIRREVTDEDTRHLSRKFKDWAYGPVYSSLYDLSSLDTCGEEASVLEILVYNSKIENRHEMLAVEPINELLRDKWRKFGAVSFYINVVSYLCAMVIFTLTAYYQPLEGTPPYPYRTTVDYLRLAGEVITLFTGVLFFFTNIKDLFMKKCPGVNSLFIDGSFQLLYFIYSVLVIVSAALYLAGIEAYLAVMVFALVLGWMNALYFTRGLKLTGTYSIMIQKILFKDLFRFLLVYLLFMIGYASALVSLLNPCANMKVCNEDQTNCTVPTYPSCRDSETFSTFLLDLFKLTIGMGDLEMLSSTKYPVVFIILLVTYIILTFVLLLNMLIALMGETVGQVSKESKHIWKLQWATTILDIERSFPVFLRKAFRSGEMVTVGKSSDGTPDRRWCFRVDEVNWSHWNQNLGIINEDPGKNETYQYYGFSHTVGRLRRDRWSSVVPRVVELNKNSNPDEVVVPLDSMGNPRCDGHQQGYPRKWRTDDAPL
Chain of TRPV1 (Q8NER1 whole entry): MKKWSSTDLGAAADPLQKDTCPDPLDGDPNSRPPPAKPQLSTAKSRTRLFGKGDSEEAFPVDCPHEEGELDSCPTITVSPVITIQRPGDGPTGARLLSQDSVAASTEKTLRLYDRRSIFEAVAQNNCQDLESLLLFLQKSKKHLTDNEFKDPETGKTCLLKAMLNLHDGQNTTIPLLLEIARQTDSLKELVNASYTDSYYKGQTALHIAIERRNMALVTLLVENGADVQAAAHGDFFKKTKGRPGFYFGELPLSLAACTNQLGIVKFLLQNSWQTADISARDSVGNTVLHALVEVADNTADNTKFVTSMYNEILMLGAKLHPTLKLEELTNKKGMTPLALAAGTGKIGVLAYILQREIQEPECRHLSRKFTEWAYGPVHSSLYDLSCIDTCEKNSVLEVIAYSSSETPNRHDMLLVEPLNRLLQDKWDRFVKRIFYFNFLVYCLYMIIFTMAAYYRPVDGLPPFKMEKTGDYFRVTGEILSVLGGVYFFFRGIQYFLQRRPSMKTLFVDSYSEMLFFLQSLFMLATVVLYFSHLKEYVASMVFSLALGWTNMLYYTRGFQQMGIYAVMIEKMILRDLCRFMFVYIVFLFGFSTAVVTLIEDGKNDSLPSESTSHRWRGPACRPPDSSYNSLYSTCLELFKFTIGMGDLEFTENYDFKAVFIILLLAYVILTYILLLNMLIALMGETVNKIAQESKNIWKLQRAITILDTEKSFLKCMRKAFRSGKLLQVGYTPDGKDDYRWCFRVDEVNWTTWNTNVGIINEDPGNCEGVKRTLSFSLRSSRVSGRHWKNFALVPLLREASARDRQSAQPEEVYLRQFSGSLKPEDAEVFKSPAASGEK

Substance: onydecalin A [compound 1]
- IC50 (TRPV1): ~81.6 µM
- IC50 (TRPV4): ~45.9 µM

Substance: Onydecalin B [compound 2]
- IC50 (TRPM8): 18.5 µM

Substance: Onydecalin D [compound 4]
- IC50 (TRPM8): 61.6 µM
